Source: article PMC9688475, “Identification and Analysis of Small Molecule Inhibitors of CRISPR-Cas9 in Human Cells” (Cells, 2022)
Values joined by “and” are separate entries in the source; they are usually repeats but may differ in a detail not shown here. Identical values can stand only once.

What was measured:
LbCas12a = LbCas12a in vitro cleavage assay; format: biochemical; settings: 100 μM
Experimental: In vitro cleavage experiments were performed using purified recombinant LbCas12a proteins similar to SpCas9 cleavage assays. LbCas12a proteins (50 nM), crRNA (50 nM), and different concentrations of the inhibitor compounds were mixed in NEBuffer 2 (New England Biolabs). After incubation at room temperature for 10 min, ScaI-linearized pUC19 DNA was added to a final concentration of 1.52 nM. The solution was vortex mixed and centrifuged, then incubated for 45 min in a water bath at 37 °C. The reaction was quenched with 0.5 μL proteinase K for 15 min at 56 °C. The samples were mixed with DNA loading buffers and resolved by 1.2% TAE agarose gel electrophoresis. Gel bands were visualized by Chemidoc XRS plus system (Bio-Rad, Hercules, CA, USA).

SpCas9–gRNA complex [1] = target: T1, SpCas9–gRNA complex (Streptococcus pyogenes serotype M1, UniProt Q99ZW2); experiment: Competitive fluorescence polarization assay, SpCas9-gRNA; format: binding
T1 construct: His6 (N); TEV site (N); made in house; host or cells: E. coli BL21 Star (DE3)

dSpCas9–gRNA complex = experiment: Competitive fluorescence polarization assay, dSpCas9-gRNA; format: binding, Streptococcus pyogenes; settings: FITC-DNA 25 nM, compounds 50 μM, PAM-DNA 1.25 μM
SpCas9–gRNA complex [2] = target: T1, SpCas9–gRNA complex; experiment: Microscale thermophoresis (MST), SpCas9-gRNA RNP; format: binding; settings: SpCas9-EGFP/gRNA RNP (1:1) 200 nM, 25 °C
Experimental: (§1) The MST method was carried out similar to the previous report. The binding ability of the compounds to SpCas9 in different states was tested by Monolith NT.115 (NanoTemper Technologies, Munich, Germany). The SpCas9-EGFP fusion protein or the SpCas9-EGFP/gRNA RNP complex (protein: gRNA = 1:1) was diluted with a binding buffer (50 mM Tris-HCl, pH 7.4, 150 mM NaCl, 0.05% Tween-20, and 10 mM MgCl2) to make a final concentration of 200 nM. The protein diluent was mixed with the compound diluent in equal volume. The mixture was kept at room temperature for 10 min. Then the sample was loaded into the NanoTemper standard capillaries. All experiments were carried out at 25 °C, 80% MST power, and 50% LED power. The data were analyzed with the NanoTemper MO affinity analysis software (NanoTemper Technologies, Munich, Germany). The raw data were then exported and plotted with Origin 2020b (OriginLab, Northampton, MA, USA).

[3] = tested on: Flag-tagged SpCas9 protein expression; settings: western blot, GAPDH loading control, concentrations tested
Experimental: The reporter 293T cells were seeded into 96-well plates at a density of 10,000 cells per well and cultured overnight before the addition of DMSO alone or various compounds (in DMSO solution) at appropriate concentrations (0.125–100 μM) with or without 2 μg/mL doxycycline for an additional 72 h of incubation. The cells were then harvested for analysis with the CytoFLEX flow cytometer (Beckman Coulter, Brea, CA, USA) or analyzed by western blot with antibodies as indicated. […] The inhibiting efficiency in reporter 293T cells was calculated using the following equation: E’ = (P2 − P1)/(P0 − P1) × 100%, where E’ is the inhibiting efficiency in reporter 293T cells, and P0, P1, and P2 are the GFP positive cell ratio of the uninduced group, Dox and DMSO treated control group, and Dox and compound treated group, respectively.

FITC-DNA = settings: compared with DMSO, no SpCas9
Experimental: The fluorescence polarization experiment was as previously reported [33]. […] The DNA was labeled at the 3′ end with fluorescein isothiocyanate (FITC). The other one is complementary to the first 58 bases of the previous oligonucleotide. These two oligonucleotides were annealed to generate the target DNA substrate labeled with fluorescent molecules (FITC-DNA). Unlabeled DNA (PAM-DNA) was considered competitive positive controls. Experiments were performed on black 384-well plates (Corning, New York, NY, USA). 50 nM SpCas9-gRNA (1:1) and different concentrations of the compound were added to the reaction buffer (50 mM Tris-HCl, pH 8.0, 0.1 M NaCl, 10 mM MgCl2, and 1 mM DTT). PAM-DNA (1250 nM) was used as a positive control. The mixture was then incubated at room temperature for 30 min, and FITC-DNA was added to the final concentration of 25 nM in each well. Fluorescence polarization signals were measured using a multilabel reader (Victor X5, PerkinElmer, Waltham, MA, USA) within 10 min. These values were plotted using GraphPad Prism 6.0 software (San Diego, CA, USA).

SpCas9 [4] = target: T2, SpCas9 (Streptococcus pyogenes serotype M1, UniProt Q99ZW2); experiment: On- and off-target editing at endogenous loci in iCas9 U2OS cells (deep sequencing); format: cell-based; parameters: expressed in transfected cells; settings: +Dox
Experimental: The iCas9-expressing U2OS cells were first through lentiviral infection. The cells were cultured with 1 μg/mL puromycin until all cells in the negative control group were dead. Monoclonal cells were then isolated and verified. Lentiviruses encoding appropriate gRNAs were used to infect the iCas9 U2OS cells, which were further selected with 10 μg/mL Blasticidin S HCL (Gibco, New York, NY, USA) until all cells in the control group were dead. The iCas9/gRNA cells were then plated in 12-well plates (Thermo Fisher Scientific) at ~40% confluence per well at 24 h before the doxycycline (2 μg/mL) addition. An individual inhibitor compound was also added at this point at the appropriate concentrations. DMSO alone served as the control. Cells cultured without doxycycline served as the SpCas9 cleavage control. After 24 h, cells were collected for genomic DNA extraction using the AxyPrep blood genomic DNA miniprep kit (Axygen, New York, NY, USA). Sequences surrounding the on- and off-target sites were amplified using barcoded primers (Supplementary Table S3) and the KOD PCR kit (Toyobo, Japan) to generate the sequencing libraries. Single-read sequencing of the pooled samples were performed on the 150 Hiseq 2000 (Illumina, San Diego, CA, USA). Each experiment was repeated twice. MATLAB was used to split the sequencing file and CRISPResso2 [38] was used to analyze the frequency of indels.

SpCas9 [5] = target: T2, SpCas9; experiment: Microscale thermophoresis (MST), SpCas9; format: binding; parameters: His6 (N); TEV site (N); made in house; host or cells: E. coli BL21 Star (DE3); settings: SpCas9–EGFP fusion protein 200 nM, 25 °C
Experimental: as §1

SpCas9 [6] = target: T2, SpCas9; experiment: Inhibition of SpCas9 nuclease activity in EGFP/iCas9/gRNA-EGFP reporter 293T cells (flow cytometry); format: cell-based; parameters: expressed in transfected cells; host or cells: H2AX-EGFP HEK293T cells, lentiviral transduction, doxycycline-induced
Source text: The H2AX-EGFP 293T cell line was first generated using the previously reported MMEJ-mediated CRIS-PITCh system. Briefly, we cloned two gRNAs (Supplementary Table S3) that respectively target H2AX gene and the PITCh vector into the px330 plasmid (Addgene, #42230). The PITCh vector contains a pair of 20-bp homologous sequences targeting the upstream and downstream regions of the H2AX gRNA cleavage site, and the SFB-EGFP expression cassette. The three plasmids were co-transfected into 293T cells at an equimolar ratio. GFP-positive cells were sorted by FACS and individually expanded to isolate single clones for genomic DNA extraction and PCR verification of successful knock-in (KI) of the SFB-EGFP cassette into 5′-end of first exon of the H2AX gene. The selected H2AX-EGFP 293T cell clone was subsequently infected with lentiviruses encoding tetracycline-inducible SpCas9 (iCas9). After drug selection, individual clones were again expanded and verified for inducible Cas9 expression. The selected clone was subsequently infected with lentivirus encoding a gRNA that targets EGFP. Puromycin-resistant clones ([…], Thermo Fisher Scientific) were then isolated after >7 days for further analysis.

T1 sequence (Q99ZW2 whole entry, one chain of several): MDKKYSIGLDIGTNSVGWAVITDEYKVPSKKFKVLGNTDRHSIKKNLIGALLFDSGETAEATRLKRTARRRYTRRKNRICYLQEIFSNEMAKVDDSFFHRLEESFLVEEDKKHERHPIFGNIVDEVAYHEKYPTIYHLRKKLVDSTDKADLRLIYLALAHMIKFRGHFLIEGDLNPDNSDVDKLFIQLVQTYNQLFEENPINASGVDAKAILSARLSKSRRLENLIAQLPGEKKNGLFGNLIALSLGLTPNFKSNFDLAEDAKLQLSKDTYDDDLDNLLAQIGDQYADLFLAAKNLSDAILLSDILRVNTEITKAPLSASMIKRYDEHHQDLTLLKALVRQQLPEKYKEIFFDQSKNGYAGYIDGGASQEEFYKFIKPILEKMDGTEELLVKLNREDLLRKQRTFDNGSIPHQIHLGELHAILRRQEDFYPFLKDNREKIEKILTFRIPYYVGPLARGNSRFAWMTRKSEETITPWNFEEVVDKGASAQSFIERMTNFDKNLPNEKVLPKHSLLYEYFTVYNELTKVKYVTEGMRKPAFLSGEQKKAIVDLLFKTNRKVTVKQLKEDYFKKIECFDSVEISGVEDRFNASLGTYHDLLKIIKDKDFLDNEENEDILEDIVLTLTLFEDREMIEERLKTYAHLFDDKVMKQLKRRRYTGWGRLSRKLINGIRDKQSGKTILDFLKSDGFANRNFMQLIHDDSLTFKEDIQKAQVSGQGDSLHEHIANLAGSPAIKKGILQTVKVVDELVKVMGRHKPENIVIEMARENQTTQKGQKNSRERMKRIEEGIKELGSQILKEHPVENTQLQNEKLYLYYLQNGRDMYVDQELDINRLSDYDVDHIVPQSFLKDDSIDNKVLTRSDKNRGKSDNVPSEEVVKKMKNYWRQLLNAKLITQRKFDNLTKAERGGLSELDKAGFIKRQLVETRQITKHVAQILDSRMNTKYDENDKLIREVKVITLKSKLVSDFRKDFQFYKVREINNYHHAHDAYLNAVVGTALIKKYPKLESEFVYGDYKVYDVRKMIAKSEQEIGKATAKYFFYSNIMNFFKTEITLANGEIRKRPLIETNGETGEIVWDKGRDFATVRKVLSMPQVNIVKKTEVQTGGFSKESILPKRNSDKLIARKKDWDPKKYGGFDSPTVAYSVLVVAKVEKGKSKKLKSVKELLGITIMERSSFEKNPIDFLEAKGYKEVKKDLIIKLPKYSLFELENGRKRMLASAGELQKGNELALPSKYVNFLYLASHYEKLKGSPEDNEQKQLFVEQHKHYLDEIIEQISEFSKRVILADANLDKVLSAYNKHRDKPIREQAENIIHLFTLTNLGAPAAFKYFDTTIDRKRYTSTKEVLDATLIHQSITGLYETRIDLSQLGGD
T2 sequence (Q99ZW2 whole entry): as the sequence (Q99ZW2 whole entry, one chain of several) above

SMILES: CC1(C)CC(=NNc2ccc([N+](=O)[O-])cc2[N+](=O)[O-])CC(C)(C)N1C(=O)COCC(=O)N1C(C)(C)CC(=NNc2ccc([N+](=O)[O-])cc2[N+](=O)[O-])CC1(C)C [SP2]
- inhibition of LbCas12a-mediated cleavage (LbCas12a): no inhibition
- change of FP signals of SpCas9-gRNA and DNA (SpCas9–gRNA complex [1]; 50 μM): < 5%
- Fluorescence Polarization (mP) (SpCas9–gRNA complex [1]; SpCas9+gRNA 50 nM, FITC-DNA 25 nM, compounds 50 μM, PAM-DNA 1.25 μM): 160.5 mP
- Fluorescence Polarization (mP) (dSpCas9–gRNA complex): 209.5 mP
- EC50 (SpCas9–gRNA complex [2]): 5.63 ± 3.65 µM
- effect on SpCas9 expression [3]: Neither compound appeared to affect SpCas9 expression
- effect on fluorescence polarization value of fluorescence-labeled DNA (FITC-DNA): did not affect
- reduction of SpCas9 off-target editing, EMX1-2 (SpCas9 [4]; 2.5 μM): 63.3%
- Indel (%) EMX1-1 Off-target (SpCas9 [4]; 24 h, SP2 2.5 μM, SP24 0.5 μM): 21.7%
- Indel (%) EMX1-1 On-target (SpCas9 [4]; 24 h, SP2 2.5 μM, SP24 0.5 μM): 42.2%
- Indel (%) EMX1-2 Off-target (SpCas9 [4]; 24 h, SP2 2.5 μM, SP24 0.5 μM): 1.1%
- Indel (%) EMX1-2 On-target (SpCas9 [4]; 24 h, SP2 2.5 μM, SP24 0.5 μM): ~ 18% and 17.8%
- Indel (%) ZSCAN2 Off-target (SpCas9 [4]; 24 h, SP2 2.5 μM, SP24 0.5 μM): 6.7%
- Indel (%) ZSCAN2 On-target (SpCas9 [4]; 24 h, SP2 2.5 μM, SP24 0.5 μM): 32.2%
- ratio of on-target vs. off-target indels, EMX1-1 (SpCas9 [4]; 24 h, SP2 2.5 μM, SP24 0.5 μM): 1.94 x
- ratio of on-target vs. off-target indels, EMX1-2 (SpCas9 [4]; 24 h, SP2 2.5 μM, SP24 0.5 μM): 16.18 x
- ratio of on-target vs. off-target indels, ZSCAN2 (SpCas9 [4]; 24 h, SP2 2.5 μM, SP24 0.5 μM): 4.81 x
- Indel (%) VEGFA-3 Off-target (SpCas9 [4]; 24 h, SP2 2.5 μM, SP24 1 μM): 1.4%
- Indel (%) VEGFA-3 On-target (SpCas9 [4]; 24 h, SP2 2.5 μM, SP24 1 μM): 35.2%
- ratio of on-target vs. off-target indels, VEGFA-3 (SpCas9 [4]; 24 h, SP2 2.5 μM, SP24 1 μM): 25.14 x
- EC50 (SpCas9 [5]): 44.2 ± 35.4 µM
- SpCas9 inhibition in reporter cells (SpCas9 [6]; 10 μM, Dox 2 μg/mL, 72 h): 50%
- inhibitory activity in reporter cells (in words) (SpCas9 [6]; from 40 to 2 μM): changed little
- EC50 (SpCas9 [6]; titration, Dox 2 μg/mL, 72 h, flow cytometry): 5.07 µM
